Assays:
Format in all cases: cell-based
Molm-13 cells = test: Cell viability assay (CellTiter-Glo), Molm-13 cells; conditions: for viability at 1 µM: MOLM-13, 1 μM; for viability at 10 µM: MOLM-13, 10 μM
Protocol: FIG. 5 represents antiproliferative activity in Molm-13 cells. The cells were incubated with Compound 1, 2, or 3 (at the indicated concentration), DMSO, or pomalidomide. Compound activity was measured based on the signal from remaining viable cells.
(§1) Molm-13 cells were cultivated in RPMI-1640 (10% FBS/1% pen-strep) and were plated in white walled 96-well plates at 20,000 cells/well. H1048 cells were cultured in DMEM:F12 media supplemented with 5% fetal bovine serum, insulin, transferrin, sodium selenite, hydrocortisone, estradiol, penicillin and streptomycin, and were plated in white walled 96-well plates at 20,000 cells/well.
(§2) Cells were treated with compound at the indicated concentration or DMSO (control) and the cultures were incubated for 3 days at 37° C. and 5% CO2. Following the incubation period, 100 μL of CellTiterGlow (CTG) reagent (CellTiter-Glo® Luminescent Cell Viability Assay, Promega (Madison, Wis.)) was added to each well. Following a 10 min incubation with shaking, luminescence was measured using a Victor Wallac Luminometer.

TNF-α = test: TNF-alpha in LPS-induced PBMCs / CD14+ monocytes, Meso Scale assay
Protocol: (§3) FIG. 4 represents the activity against TNF-alpha in CD14, monocytes, plated in 96 well plates and pretreated with Compounds 1, 2, or 3, or pomalidomide, for 1 h and then induced with 100 ng/mL LPS for 18-24 h. Cytokines were measured according to MesoScale protocol. The negative control wells were treated with DMSO. Cells were treated with compound (at the indicated concentrations) or 10 μM pomalidomide. Compound activity was measured as a percentage of LPS-induced activity.
(§4) Either frozen primary blood mononuclear cells (PBMCs) or frozen CD14+ mobilized peripheral blood monocytes were purchased from AllCells (PB003F, Normal Peripheral Blood MNC (Alameda, Calif.)). Cells were quick thawed, washed 1-time with RPMI-1640 (10% FBS/1% Pen-Strep) and plated in 96 well plates at 200,000 cells per well. Cells were pretreated with DMSO only, pomalidomide or the indicated compounds for 1 h and then induced with 100 ng/mL lipopolysaccharide (LPS) for 18-24 h. The supernatant was analyzed for IL-1 beta, IL-6, and TNF-alpha, using Meso Scale assay according to manufacturer's protocol. The negative control wells were treated with DMSO.
(§5) Compound activity is measured as fold difference from the DMSO control. Compounds 1, 2, and 3 each reduced expression of IL-1-b in LPS-stimulated PBMCs by over 80% at 1 uM, relative to a just under 80% reduction with pomalidomide at 10 μM (FIG. 2).

IL-6 = IL-6 in LPS-induced PBMCs / CD14+ monocytes, Meso Scale assay
Protocol: as §3, with “FIG. 3” for “FIG. 4”, “against IL-6” for “against TNF-alpha”, “protocol. Negative” for “protocol. The negative”
as §4, §5

IL-1β = test: IL-1 beta in LPS-induced PBMCs / CD14+ monocytes, Meso Scale assay
Protocol: FIG. 2 represents the activity against IL-1-beta in CD14 monocytes, plated in 96 well plates and pretreated with Compounds 1, 2, or 3, or pomalidomide, for 1 h and then induced with 100 ng/mL LPS for 18-24 h. Cytokines were measured according to MesoScale protocol. Negative control wells were treated with DMSO. Compound activity was measured as a percentage of LPS-induced activity.
as §4, §5

GSPT1 = molecular target: T1, GSPT1 (Homo sapiens, UniProt P15170); test: Western blot analysis of GSPT1 protein levels in Jurkat cells; conditions: DMSO = 100.00; for GSPT1 protein level (% of DMSO control) at 0.1 µM: 100 nM compound; for GSPT1 protein level (% of DMSO control) at 1 µM: 1 uM compound
T1 construct: Whole cell extract was prepared with RIPA buffer according to manufacturer's protocol; endogenous in cells; host or cells: Jurkat cells
T1 sequence (P15170 whole entry): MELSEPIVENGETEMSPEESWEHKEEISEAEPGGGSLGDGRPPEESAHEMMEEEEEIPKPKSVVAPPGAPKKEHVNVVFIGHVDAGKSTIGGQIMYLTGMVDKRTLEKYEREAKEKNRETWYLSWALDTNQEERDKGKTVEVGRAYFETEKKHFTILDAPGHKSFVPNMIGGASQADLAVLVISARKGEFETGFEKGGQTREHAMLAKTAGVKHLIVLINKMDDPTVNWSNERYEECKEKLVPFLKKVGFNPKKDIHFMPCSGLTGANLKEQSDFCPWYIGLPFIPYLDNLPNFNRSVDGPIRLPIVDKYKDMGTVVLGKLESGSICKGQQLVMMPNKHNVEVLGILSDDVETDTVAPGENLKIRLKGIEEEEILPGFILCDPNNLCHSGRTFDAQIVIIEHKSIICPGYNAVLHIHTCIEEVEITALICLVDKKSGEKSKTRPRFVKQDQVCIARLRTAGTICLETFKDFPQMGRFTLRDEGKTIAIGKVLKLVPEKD
Protocol: FIG. 1 represents the activity against CK1α, ikaros, and GPST1 in Jurkat cells, plated in 96 well plates. Cells were pretreated with compounds for 4 h and then lysed and protein levels measure via Western blots. The negative control wells were treated with DMSO. Cells were treated with the indicated compound at the indicated concentration. Compound activity is measured as a decrease in GSPT1 protein levels.
Western Blot Protocol: Cell lines were grown in RPMI 1640 supplemented with streptomycin, penicillin and 10% fetal bovine serum.
Jurkat cells were cultured at approximately 10^6 cells per mL, DMSO or the indicated compound was added to the cells and allowed to incubate for 6-8 h. Whole cell extract was prepared with RIPA buffer according to manufacturer's protocol (Pierce (Dallas, Tex.)). Briefly, ˜2×10^6 cells were washed once in PBS, the cell pellet was resuspended in RIPA buffer and allowed to incubate for 15 min on ice. Cell debris was removed by centrifugation and the cleared whole cell lysate was transferred to a new tube for further analysis.
For western blot analysis, whole cell extracts were separated on 4-12% SDS-polyacrylamide gels, transferred to nitrocellulose and probed with the indicated primary antibodies. Membranes were subsequently washed and probed with the appropriate horseradish peroxidase (HRP)-conjugated secondary antibody. Membranes were subsequently washed and probed with the appropriate IRDye secondary antibodies (LI-COR). The signal was detected using the Odyssey Imaging System (LI-COR).

H1048 cells = test: Cell viability assay (CellTiter-Glo), H1048 cells; conditions: Homo sapiens, NCI-H1048, 72 h, 3 days; for viability at 1 µM: H1048, 1 μM; for viability at 10 µM: H1048, 10 μM
Protocol: as §1, §2

IL-2 = IL-2 in PBMCs on anti-human CD3 (OKT3) coated plates, Mesoscale analysis; conditions: PBMC, 24 h, relative to DMSO control, read-out: Fold Change IL-2
Protocol: For the IL-2 analysis, 96 well plates were precoated with 1 μg/mL anti-human CD3 antibody (OKT3, eBioscience Inc., San Diego, Calif.). After washing with PBS, compounds were added (50 μL/well) followed by PBMCs diluted at 3-4 million cells/mL (150 μL/well). Plates were incubated for 24 h and the supernatants collected for Mesoscale IL-2 analysis.
as §5

| SMILES | GSPT1 protein level (% of DMSO control) at 0.1 µM (GSPT1) | GSPT1 protein level (% of DMSO control) at 1 µM (GSPT1) | IC50 (Molm-13 cells; Homo sapiens, Molm-13 cells, approximate) | viability at 1 µM (Molm-13 cells; Homo sapiens, 72 h, 3 days) | inhibition at 0.1 µM (TNF-α) | inhibition at 0.1 µM (IL-6) | inhibition at 0.1 µM (IL-1β) | viability at 1 µM (H1048 cells) | viability at 10 µM (H1048 cells) | fold induction at 0.1 µM (IL-2) | inhibition at 1 µM (TNF-α) | inhibition at 1 µM (IL-6) | inhibition at 1 µM (IL-1β) | fold induction at 1 µM (IL-2) | viability at 10 µM (Molm-13 cells; Homo sapiens, 72 h, 3 days) | viability at 0.4 µM (Molm-13 cells; Homo sapiens, 72 h, MOLM-13, 0.4 μM, 3 days) | effect on cell viability (Molm-13 cells; Molm-13 cells, 1 μM (FIG. 5)) | viability at 0.6 µM (Molm-13 cells; Homo sapiens, 72 h, MOLM-13, 0.6 μM, 3 days) | viability at 0.5 µM (Molm-13 cells; Homo sapiens, 72 h, MOLM-13, 0.5 μM, 3 days) |
| --- | --- | --- | --- | --- | --- | --- | --- | --- | --- | --- | --- | --- | --- | --- | --- | --- | --- | --- | --- |
| Cc1ccc(NC(=O)NCc2cc3c(cc2F)C(=O)N([C@H]2CCCC(=O)NC2=O)C3)cc1Cl [Compound 22, (S)-1-(3-chloro-4-methylphenyl)-3-((2-(2,7-dioxoazepan-3-yl)-6-fluoro-1-oxoisoindolin-5-yl)methyl)urea] | 22.1% | 5.56% | – | 2.45% | 74% | 58% | 82% | 11.5% | 4.04% | 2 | – | – | – | – | – | – | – | – | – |
| Cc1c(Cl)cccc1NC(=O)NCc1ccc2c(c1)CN([C@H]1CCCC(=O)NC1=O)C2=O [Compound 5, (S)-1-(3-chloro-2-methylphenyl)-3-((2-(2,7-dioxoazepan-3-yl)-1-oxoisoindolin-5-yl)methyl)urea] | 80.2% | 15.7% | – | – | – | – | – | 27.3% | 2.36% | – | 92% | 99% | 90% | 1.3 | – | – | – | 50% | – |
| Cc1ccc(NC(=O)NCc2ccc3c(c2C)CN([C@H]2CCCC(=O)NC2=O)C3=O)cc1Cl [Compound 16, (S)-1-(3-chloro-4-methylphenyl)-3-((2-(2,7-dioxoazepan-3-yl)-4-methyl-1-oxoisoindolin-5-yl)methyl)urea] | 59.4% | 39.3% | – | – | 78% | 72% | 72% | 7.66% | 3.93% | 1.7 | – | – | – | – | – | – | – | – | 70% |

Continued, in another order:

| GSPT1 protein level (% of DMSO control) at 0.1 µM (GSPT1) | GSPT1 protein level (% of DMSO control) at 1 µM (GSPT1) | IC50 (Molm-13 cells; Homo sapiens, Molm-13 cells, approximate) | SMILES | viability at 1 µM (Molm-13 cells; Homo sapiens, 72 h, 3 days) | inhibition at 0.1 µM (TNF-α) | inhibition at 0.1 µM (IL-6) | inhibition at 0.1 µM (IL-1β) | viability at 1 µM (H1048 cells) | viability at 10 µM (H1048 cells) | fold induction at 0.1 µM (IL-2) | inhibition at 1 µM (TNF-α) | inhibition at 1 µM (IL-6) | inhibition at 1 µM (IL-1β) | fold induction at 1 µM (IL-2) | viability at 10 µM (Molm-13 cells; Homo sapiens, 72 h, 3 days) | viability at 0.4 µM (Molm-13 cells; Homo sapiens, 72 h, MOLM-13, 0.4 μM, 3 days) | effect on cell viability (Molm-13 cells; Molm-13 cells, 1 μM (FIG. 5)) | viability at 0.6 µM (Molm-13 cells; Homo sapiens, 72 h, MOLM-13, 0.6 μM, 3 days) | viability at 0.5 µM (Molm-13 cells; Homo sapiens, 72 h, MOLM-13, 0.5 μM, 3 days) |
| --- | --- | --- | --- | --- | --- | --- | --- | --- | --- | --- | --- | --- | --- | --- | --- | --- | --- | --- | --- |
| 83.3% | 18.5% | – | Cc1ccc(CC(=O)NCc2ccc3c(c2)CN([C@H]2CCCC(=O)NC2=O)C3=O)cc1Cl [Compound 7, (S)-2-(3-chloro-4-methylphenyl)-N-((2-(2,7-dioxoazepan-3-yl)-1-oxoisoindolin-5-yl)methyl)acetamide] | 70% | – | – | – | 44.1% | 7.25% | – | 59% | 73% | 56% | 1 | – | – | – | – | – |
| 128% | 32.1% | – | Cc1ccc(CC(=O)NCc2ccc3c(c2)CN([C@H]2CCCC(=O)NC2=O)C3=O)cc1 [Compound 9, (S)—N-((2-(2,7-dioxoazepan-3-yl)-1-oxoisoindolin-5-yl)methyl)-2-(p-tolyl)acetamide] | – | – | – | – | 57.1% | 7.27% | – | 64% | 63% | 61% | 1.8 | 99% | – | – | – | – |
| 134% | 23% | ~800 nM | Cc1ccc(NC(=O)NCc2ccc3c(c2)CN(C2CCCC(=O)NC2=O)C3=O)cc1 (centres unmarked) [Compound 2] | – | 79% | 51% | 78% | 28.3% | 4.93% | 1.4 | – | – | – | – | – | 50% | reduced cell viability | – | – |
| 95.9% | 46.2% | – | COc1ccc(CC(=O)NCc2ccc3c(c2)CN([C@H]2CCCC(=O)NC2=O)C3=O)cc1Cl [Compound 13, (S)-2-(3-chloro-4-methoxyphenyl)-N-((2-(2,7-dioxoazepan-3-yl)-1-oxoisoindolin-5-yl)methyl)acetamide] | – | – | – | – | 97.8% | 44.2% | – | 53% | 85% | 77% | 2.6 | 84% | – | – | – | – |

From patent US10857155B2, “Compounds targeting proteins, compositions, methods, and uses thereof” (BioTheryX, Inc., priority 2017, dated 2020)
